Laboratory results taken from publication PMC10537604, “Development and Assessment of 1,5–Diarylpyrazole/Oxime Hybrids Targeting EGFR and JNK–2 as Antiproliferative Agents: A Comprehensive Study through Synthesis, Molecular Docking, and Evaluation” (Molecules, 2023).
Read-outs that look alike come from different tables or passages of the source.

Tests used:
[1] = system: human pancreatic cancer cell line SUIT-2; assay: WST-8 antiproliferative assay, SUIT-2; format: cell-based
Procedure: (§1) Compounds 7a–j, 8a–j, 9a–c, and 10a–c were evaluated for in vitro anticancer activities against five different cancer cell lines, namely, human colorectal adenocarcinoma cell lines DLD-1, human cervical cancer cell line Hela, human pancreatic cancer cell line SUIT-2, human myelogenous leukemia cell line K562, and human hepatocellular carcinoma cell line HepG2 using WST-8 assay at concentrations of 100 µM to investigate the growth inhibition percent (GI%) of each compound using daunorubicin as a reference drug. […]. […] So, as a conclusion on the SAR study of those compounds as antiproliferative agents, the oxime moiety potentiated the anticancer activity and electron donating groups on R1 and R2 played an important role on this activity. Moreover, the sulfamoyl moiety on R3 seems to play a potential role in the activity of the prepared compounds (Table 1).
(§2) All selected compounds and daunorubicin were recorded as the minimum concentration required to inhibit half cell growth (IC50) and the results are listed in Table 2.
(§3) Evaluation of anticancer activity was performed according to the standard water-soluble tetrazolium-8 (WST-8) assay at the Faculty of Engineering, Yamagata University, Yonezawa, Japan, using an MTP-310 absorbance microplate reader. The EGFR inhibitory assay was carried out at the Faculty of Engineering, Yamagata University, Yonezawa, Japan, according to the protocol enzyme linked immunosorbent assay (ELISA) kits (Douset sandwich ELISA test, recombinant mouse EGFR). The JNK-2 inhibitory assay was performed at the Faculty of Engineering, Yamagata University, Yonezawa, Japan, according to the protocol of enzyme-linked immunosorbent assay (ELISA), the assay was carried out using the JNK-2 kit (Simple Step ELISA, pT183/Y185, Abcam Company, Cambridge, CB2 0AX, UK). Apoptosis and cell cycle analysis was performed at Faculty of medicine, Yamagata University, Yamagata, Japan, using BD FACS melody. Molecular docking was performed at the Nano Medical Engineering Laboratory, RIKEN Cluster for Pioneering Researchers, RIEKN, Japan, using ICM-Pro 3.8 software (MolSoft L.L.C., San Diego, CA, USA).
(§4) According to the standard water-soluble tetrazolium-8 (WST-8) assay, the current synthesized compounds have been tested for their anticancer activities against different five cancer cell lines; DLD-1, Hela, K562, SUIT-2, and HepG2 and daunorubicin was used as reference drug by the WST-8 assay. The five cells were maintained in a suspension culture, (Dulbecco’s modified eagle medium (DMEM) for SUIT-2, Hela, and HepG2 or PRIM for K562 and DLD), supplemented with 5% FBS (Fetal Bovine Serum) containing 1% of a penicillin-streptomycin (1:1) mixture. A 100 μL aliquot of cells (10,000 cells/mL) was added to a 96 well plate and incubated for 24 h at 37 °C in a humidified incubator containing 5% CO2 in the air. After 24 h, a 10 μL aliquot of test compound (concentrations varying in the range of 10–150 µM) was added to each of the 96 wells and incubated for 24 h. Then A 10 μL WST-8 solution (mixture of WST-8 and 1-methoxy PMS) was added to each well and the incubation continued for 3 h. The visible absorbance at 450 nm and 630 nm as the reference wavelength of each well was quantified using an MTP-310 absorbance microplate reader. Daunorubicin was used as a positive control. The results of cytotoxicity were recorded as growth inhibition percentages and as IC50 values.

[2] = system: human cervical cancer cell line Hela; assay: WST-8 antiproliferative assay, Hela; format: cell-based; conditions: for inhibition at 100 µM: read-out: Growth Inhibition (GI%) Hela; for IC50: read-out: IC50 Hela
Procedure: as §1, §2, §3
as §4, with “After 24 h, a 10 μL aliquot of test compound (concentrations varying in the range of 10–150 µM) was added to each of the 96 wells and incubated for 24 h.” left out

[3] = system: human colorectal adenocarcinoma cell line DLD-1; assay: WST-8 antiproliferative assay, DLD-1; format: cell-based
Procedure: as §1, §2, §3, §4

[4] = system: human myelogenous leukemia cell line K562; assay: WST-8 antiproliferative assay, K562; format: cell-based; conditions: Homo sapiens
Procedure: as §1, §2, §3
as §4, with “After 24 h, a 10 μL aliquot of test compound (concentrations varying in the range of 10–150 µM) was added to each of the 96 wells and incubated for 24 h.” left out

[5] = system: human hepatocellular carcinoma cell line HepG2; assay: WST-8 antiproliferative assay, HepG2; format: cell-based
Procedure: as §1, §2, §3, §4

[6] = SUIT-2, 100 µM, WST-8 assay, read-out: Growth Inhibition (GI%) SUIT-2
[7] = WST-8 assay, six concentrations 1-100 µM
[8] = DLD-1, 100 µM, WST-8 assay, read-out: Growth Inhibition (GI%) DLD-1
[9] = K562, 100 µM, WST-8 assay, read-out: Growth Inhibition (GI%) K562
[10] = K562, WST-8 assay, six concentrations 1-100 µM, read-out: IC50 K562
[11] = HepG2, 100 µM, WST-8 assay, read-out: Growth Inhibition (GI%) HepG2

Structure (SMILES) | melting point | inhibition at 100 µM [1, 6] | inhibition at 100 µM ([2]; 100 µM, WST-8 assay) | IC50 [2, 7] | inhibition at 100 µM [3, 8] | inhibition at 100 µM [4, 9] | IC50 [4, 10] | inhibition at 100 µM [5, 11] | inhibition at 100 µM ([1]; SUIT-2, read-out: Growth Inhibition (GI%) SUIT-2) | inhibition at 100 µM [2] | IC50 [2] | inhibition at 100 µM ([3]; DLD-1, read-out: Growth Inhibition (GI%) DLD-1) | IC50 ([3]; DLD-1, read-out: IC50 DLD-1) | inhibition at 100 µM ([4]; K562, read-out: Growth Inhibition (GI%) K562) | IC50 ([4]; K562, read-out: IC50 K562, WST-8 assay, six concentrations 1-100 µM) | inhibition at 100 µM ([5]; HepG2, read-out: Growth Inhibition (GI%) HepG2) | IC50 ([5]; HepG2, read-out: IC50 HepG2)
COc1cc(/C(C)=N/O)ccc1OC(=O)c1cc(-c2ccc(C)cc2)n(-c2ccccc2)n1 [Compound 8b, (E)–4–(1–(Hydroxyimino)ethyl)–2–methoxyphenyl 1–phenyl–5–p–tolyl–1H–pyrazole–3–carboxylate] | 123 to 125 °C | 102% | 60% | 32 µM | 92% | 99% | 13 µM | 107% | – | – | – | – | – | – | – | – | –
C/C(=N\O)c1ccc(NC(=O)c2cc(-c3ccccc3)n(-c3ccc(S(N)(=O)=O)cc3)n2)cc1 [Compound 10a, (E)–N–(4–(1–(Hydroxyimino)ethyl)phenyl)–5–phenyl–1–(4–sulfamoylphenyl)–1H–pyrazole–3–carboxamide] | – | 88% | 0% | – | 99% | 84% | 16 µM | 72% | – | – | – | – | – | – | – | – | –
COc1ccc(-c2cc(C(=O)Oc3ccc(/C(C)=N/O)cc3OC)nn2-c2ccc(S(N)(=O)=O)cc2)cc1 [Compound 8h, (E)–4–(1–(Hydroxyimino)ethyl)–2–methoxyphenyl 5–(4–methoxyphenyl)–1–(4–sulfamoyl phenyl)–1H–pyrazole–3–carboxylate] | 125 to 127 °C | 73% | 7% | 74 µM | 52.3% | 78% | 21 µM | 63% | – | – | – | – | – | – | – | – | –
COc1cc(/C(C)=N/O)ccc1OC(=O)c1cc(-c2ccccc2)n(-c2ccccc2)n1 [Compound 8a, (E)–4–(1–(Hydroxyimino)ethyl)2–methoxyphenyl 1,5–diphenyl–1H–pyrazole–3–carboxylate] | 167 to 170 °C | 77% | 33% | – | 25.7% | 94% | 22 µM | 0% | – | – | – | – | – | – | – | – | –
COc1ccc(-c2cc(C(=O)Nc3ccc(/C(C)=N/O)cc3)nn2-c2ccc(S(N)(=O)=O)cc2)cc1OC [Compound 10c, (E)–5–(3,4–Dimethoxyphenyl)–N–(4–(1–(hydroxyimino)ethyl)phenyl)–1–(4–sulfamoyl phenyl)–1H–pyrazole–3–carboxamide] | – | 103% | 75% | 5 µM | 92.4% | 87% | 29 µM | 52% | – | – | – | – | – | – | – | – | –
COc1cc(/C(C)=N/O)ccc1OC(=O)c1cc(-c2ccc(Cl)cc2)n(-c2ccc(S(N)(=O)=O)cc2)n1 [Compound 8i, (E)–4–(1–(Hydroxyimino)ethyl)–2–methoxyphenyl 5–(4–chlorophenyl)–1–(4–sulfamoyl phenyl)–1H–pyrazole–3–carboxylate] | – | 98% | 100% | 13 µM | 34% | 97% | 71 µM | 90% | – | – | – | – | – | – | – | – | –
COc1ccc(-c2cc(C(=O)Oc3ccc(/C(C)=N/O)cc3OC)nn2-c2ccccc2)cc1OC [Compound 8e, (E)–4–(1–(Hydroxyimino)ethyl)–2–methoxyphenyl 5–(3,4–dimethoxy phenyl)–1–phenyl–1H–pyrazole–3–carboxylate] | 115 to 118 °C | 83% | 77% | 22 µM | 29.2% | 93% | 20 µM | 99% | – | – | – | – | – | – | – | – | –
COc1cc(/C(C)=N/O)ccc1OC(=O)c1cc(-c2ccc(Cl)cc2)n(-c2ccccc2)n1 [Compound 8d, (E)–4–(1–(Hydroxyimino)ethyl)–2–methoxyphenyl 5–(4–chlorophenyl)–1–phenyl–1H–pyrazole–3–carboxylate] | 106 to 109 °C | – | – | – | – | – | – | – | 77% | 48% | 57 µM | 72% | 14.4 µM | 95% | 9 µM | 98% | 23.3 µM
COc1ccc(-c2cc(C(=O)Nc3ccc(/C(C)=N/O)cc3)nn2-c2ccc(S(N)(=O)=O)cc2)cc1 [Compound 10b, (E)–N–(4–(1–(Hydroxyimino)ethyl)phenyl)–5–(4–methoxyphenyl)–1–(4–sulfamoylphenyl)–1H–pyrazole–3–carboxamide] | 110 to 112 °C | 50% | 2% | – | 72.5% | 84% | – | 2% | – | – | – | – | – | – | – | – | –
COc1cc(/C(C)=N/O)ccc1OC(=O)c1cc(-c2ccccc2)n(-c2ccc(S(N)(=O)=O)cc2)n1 [Compound 8f, (E)–4–(1–(Hydroxyimino)ethyl)–2–methoxyphenyl 5–phenyl–1–(4–sulfamoyl phenyl)–1H–pyrazole–3–carboxylate] | 122 to 124 °C | 95% | 107% | 22 µM | 72.9% | 76% | 15.6 µM | 80% | – | – | – | – | – | – | – | – | –
COc1cc(/C(C)=N/O)ccc1OC(=O)c1cc(-c2ccc(C)cc2)n(-c2ccc(S(N)(=O)=O)cc2)n1 [Compound 8g, (E)–4–(1–(Hydroxyimino)ethyl)–2–methoxyphenyl 1–(4–sulfamoylphenyl)–5–p–tolyl–1H–pyrazole–3–carboxylate] | – | 96% | 78% | 8 µM | 85.8% | 87% | 7.6 µM | 93% | – | – | – | – | – | – | – | – | –
